In article PMC2713499 (Biochemistry, 2009):

Tested on: PC-3-Bcl-2 prostate cancer cells
Test: In vitro cytotoxicity assay
Assay type: cell-based, Human
Conditions: for cytotoxic effects: up to 100,000 nM, PC-3-Bcl-2, in words; for cytotoxic effects / inhibition of proliferation and viability compared to control: 96 h; for inhibition of proliferation and viability compared to control / % surviving fraction compared to mock: MTT, PC-3-Bcl-2; for % surviving fraction compared to mock: 96 hours

Row | SMILES | cytotoxic effects | inhibition of proliferation and viability compared to control (0.1 mM) [%] | % surviving fraction compared to mock (0.1 mM) [%] | inhibition of proliferation and viability compared to control (0.01 mM) [%]
1 | CC(=O)Nc1nnc(S(N)(=O)=O)s1 [AZM, N-(5-(aminosulfonyl)-1,3,4-thiadiazol-2-yl)-acetamide] | no cytotoxic effects |  |  | 
2 | NS(=O)(=O)c1nnc(NS(=O)(=O)c2ccccc2)s1 [BZM, 1,3,4-Thiadiazole-2-sulfonamide, 5-((phenylsulfonyl)amino)] | no cytotoxic effects |  |  | 
3 | NS(=O)(=O)c1nnc(-c2ccccc2Cl)s1 [CHL, 5-[o-chlorophenyl]-1,3,4-thiadiazole-2-sulfonamide] |  | 57 | 43 | 
4 | CCOc1ccc2nc(S(N)(=O)=O)sc2c1 [EZM, 6-ethoxybenzothiazole-2-sulfonamide] | no cytotoxic effects |  |  | 
5 | CC(=O)/N=c1/sc(S(N)(=O)=O)nn1C [MZM, N-(3-methyl-5-sulfamoyl-3H-1,3,4-thiadiazol-2-ylidene)] |  | 32 | 68 | 29
